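Where inhibition never reached the appropriate level, the endpoint shown equals the highest concentration tested. Otherwise, values were interpolated linearly from a five-concentration, 48-hour dose response in 96-well plates. At the TGI there is no net growth.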
What was measured:
Assay in all cases: NCI tumour cell line growth inhibition, 48 h
[1] = tested on: A549 NSCLC
[2] = tested on: BT-549 breast
[3] = tested on: KM12 colon
[4] = tested on: MDA-MB-231 breast
[5] = tested on: NCI/ADR-RES ovarian
[6] = tested on: OVCAR-8 ovarian
[7] = tested on: PC-3 prostate
[8] = tested on: RPMI-8226 leukemia
[9] = tested on: SN12C renal
[10] = tested on: TK-10 renal
[11] = tested on: U251 CNS
[12] = tested on: UACC-62 melanoma
[13] = tested on: NCI-H522 lung

Compound	TGI [1]	TGI [2]	TGI [3]	TGI [4]	TGI [5]	TGI [6]	TGI [7]	TGI [8]	TGI [9]	TGI [10]	TGI [11]	TGI [12]	TGI [13]
O=CN(O)CC(=O)O	> 100 µM	> 100 µM	> 100 µM	> 100 µM	> 100 µM	> 100 µM	> 100 µM	> 100 µM	> 100 µM	> 100 µM	> 100 µM	> 100 µM	–
NC(CCSCC(F)F)C(=O)O (stereo unspecified)	> 100 µM	–	> 100 µM	–	–	> 100 µM	–	–	> 100 µM	> 100 µM	> 100 µM	> 100 µM	> 100 µM
C=C1CC2C(=O)N(c3ccccc3)C(=O)C2CC1n1[nH]c(=O)n(Cc2ccccc2)c1=O (stereo unspecified)	> 100 µM	–	> 100 µM	–	–	> 100 µM	–	> 100 µM	> 100 µM	> 100 µM	> 100 µM	> 100 µM	> 100 µM
Cc1cc2c(cc1Cl)SC(NNc1cnc3ccccc3n1)=NS2(=O)=O	> 100 µM	> 100 µM	> 100 µM	> 100 µM	> 100 µM	> 100 µM	> 100 µM	–	> 100 µM	> 100 µM	> 100 µM	> 100 µM	> 100 µM
CC12CCC(C/C1=N\NC(N)=O)C2(C)C (stereo unspecified)	> 100 µM	> 100 µM	> 100 µM	–	> 100 µM	> 100 µM	> 100 µM	> 100 µM	> 100 µM	> 100 µM	> 100 µM	> 100 µM	> 100 µM
O=c1cc(-c2ccccc2F)[nH]c2cc3c(cc12)OCO3	> 100 µM	–	17.1 µM	3.34 µM	0.246 µM	–	> 100 µM	–	> 27.1 µM	98.2 µM	22.5 µM	> 100 µM	0.238 µM
CCC1C(=O)OCc2c1cc1n(c2=O)CCC12OCCO2 (stereo unspecified)	> 100 µM	–	> 100 µM	–	–	> 100 µM	–	> 100 µM	> 100 µM	> 100 µM	> 100 µM	> 100 µM	> 100 µM
COC(=O)/C(=N\NC(=S)NN)C(C(=O)C(=O)Nc1ccccc1C(N)=O)c1nc2ccccc2[nH]c1=O (stereo unspecified)	> 100 µM	–	> 100 µM	–	–	> 100 µM	–	> 100 µM	> 100 µM	> 100 µM	> 100 µM	> 100 µM	> 100 µM
CCC1(CC)C(=O)NC(=S)N=C1N	> 100 µM	–	–	–	–	> 100 µM	–	> 100 µM	> 100 µM	> 100 µM	> 100 µM	> 100 µM	> 100 µM
Cc1cn(C2CC(OC(c3ccccc3)(c3ccccc3)c3ccccc3)C(COC(c3ccccc3)(c3ccccc3)c3ccccc3)O2)c(=O)[nH]c1=O (stereo unspecified)	> 100 µM	98.4 µM	> 100 µM	> 100 µM	> 100 µM	> 100 µM	> 100 µM	–	> 100 µM	> 100 µM	–	> 100 µM	–
OC(c1ccco1)C(F)(F)c1nc2ccccc2o1 (stereo unspecified)	–	> 100 µM	> 100 µM	> 100 µM	> 100 µM	> 100 µM	> 100 µM	> 100 µM	–	> 100 µM	> 100 µM	> 100 µM	–
CCCC[C@@H]1CCN2C[C@@H](O)[C@@H](O)[C@H]2[C@@H]1O	> 100 µM	> 100 µM	> 100 µM	> 100 µM	> 100 µM	> 100 µM	> 100 µM	> 100 µM	–	> 100 µM	> 100 µM	> 100 µM	> 100 µM
CC1=CCC[C@H]2[C@](C)(CC3=CC(=O)C4SCCSC4C3=O)[C@@H](C)CC[C@]12C (stereo partly specified)	38.3 µM	39.7 µM	> 100 µM	46.7 µM	47.2 µM	39.6 µM	49.4 µM	41.8 µM	28.8 µM	–	34.5 µM	39.9 µM	–
CCOC(=O)c1c(NC(=S)Nc2ccc(C)cc2)sc2c1CCN(C)C2	> 100 µM	> 100 µM	> 100 µM	> 100 µM	> 100 µM	> 100 µM	> 100 µM	> 100 µM	> 100 µM	> 100 µM	–	> 100 µM	–
NS(=O)(=O)c1nnc(NSc2ccc([N+](=O)[O-])cc2)s1	> 100 µM	> 100 µM	–	> 100 µM	> 100 µM	> 100 µM	–	> 100 µM	> 100 µM	> 100 µM	> 100 µM	> 100 µM	44.3 µM
COc1cc(-c2c3c(cc4c2OCO4)[C@@H](Nc2ccc4c(c2)Cc2cc(N[C@@H]5c6cc7c(cc6C(c6cc(OC)c(O)c(OC)c6)[C@H]6C(=O)OC[C@H]56)OCO7)ccc2-4)[C@H]2COC(=O)[C@@H]2C3)cc(OC)c1O (stereo partly specified)	> 100 µM	94.5 µM	> 100 µM	> 100 µM	42.2 µM	> 100 µM	47 µM	> 100 µM	> 100 µM	> 100 µM	89 µM	–	–
O=C(c1ccccc1)[C@H]1Nc2cnccc2C2c3ccccc3CC21 (stereo partly specified)	74.5 µM	–	> 61.3 µM	–	–	33.9 µM	–	34.4 µM	31.8 µM	> 81.9 µM	48.8 µM	> 58.8 µM	8.56 µM
c1ccc(-c2ccc(N=NN3CCCC3)cc2)cc1	–	> 100 µM	> 100 µM	> 100 µM	> 100 µM	> 100 µM	> 100 µM	> 100 µM	> 100 µM	> 100 µM	> 100 µM	> 100 µM	> 100 µM
NC(=O)NC(=NCc1ccccc1)NCc1ccccc1	> 100 µM	–	> 100 µM	–	–	> 100 µM	–	–	> 100 µM	> 100 µM	> 100 µM	> 100 µM	> 100 µM
NNC(=O)c1cccc2c1Oc1ccccc1S2	–	> 100 µM	> 100 µM	> 100 µM	> 100 µM	> 100 µM	> 100 µM	> 100 µM	–	> 100 µM	> 100 µM	> 100 µM	–
Clc1cccc(C2ON=C(c3ccccc3)N2C23CC4CC(CC(C4)C2)C3)c1Cl (stereo unspecified)	> 10 µM	–	> 10 µM	> 10 µM	> 10 µM	> 10 µM	> 10 µM	> 10 µM	> 10 µM	> 10 µM	> 10 µM	> 10 µM	> 10 µM

From PubChem BioAssay (NCI)
